Source: patent US4352788A, “Derivatives of 2,4,6-triiodo-isophthalic acid, processes for their synthesis and X-ray contrasting materials containing these” (Bracco Industria Chimica S.p.A., priority 1979, dated 1982)
Converted amounts (≈) assume the structure as drawn. “Also recorded” adds a separate entry of the source. Like-named read-outs stand apart in the source and are kept apart here.

How the values were obtained:
[1] = Water solubility; type: physicochemical; conditions: for solubility: water
[2] = Solubility in organic solvents; type: physicochemical
[3] = Osmotic pressure of solutions; type: physicochemical; conditions: for Osmotic Pressure: 37° C.
[4] = Osmolality of solutions; type: physicochemical; conditions: 37° C.
[5] = Stability (hydrolysis, aqueous solution); type: physicochemical
[6] = Density of injection solution; type: physicochemical; conditions: injection solution (Example 14), in g/mL (unit assumed)
[7] = Viscosity of aqueous solutions; type: physicochemical; conditions: for Viscosity at 37° C.: injection solution (Example 14)
[8] = cited from earlier work
[9] = prior art; cited from earlier work
[10] = compared with METRIZAMIDE; cited from earlier work
[11] = cited from earlier work; for water solubility (in words): prior art
[12] = at 20° C., Table 1, read-out: Solubility in Water
[13] = aqueous solution containing 300 mg I/ml, 20° C.
[14] = aqueous solution containing 300 mg I/ml, 37° C.
[15] = aqueous solution containing 400 mg I/ml, 20° C.
[16] = aqueous solution containing 400 mg I/ml, 37° C.
[17] = at 25° C., read-out: Water solubility

SMILES: CN(C(=O)CO)c1c(I)c(C(=O)NCC(O)CO)c(I)c(C(=O)NCC(O)CO)c1I (stereo not drawn) [Compound A, 5-(N-methyl-hydroxyacetylamino)-2,4,6-triiodo-isophthalic-acid-bis-(2,3-dihydroxypropylamide)]
- water solubility (in words) [1]: comparatively particularly high water-solubility; also recorded: higher water solubility
- water solubility (in words) ([1]; listed as Example 9): very readily soluble
- water solubility (in words) ([1]; listed as Example 11): very soluble
- solubility [1, 12]: > 1000 mg/mL
- solubility ([1]; read-out: solubility in water): 3000 mg/mL (≈ 3860 mM)
- Solubility in ethanol (in words) [2]: limited
- Solubility in ethanol ([2]; ethanol at 25° C.): 35 parts by volume
- Solubility in ethanol ([2]; ethanol at the boiling point): 20 parts by volume
- solubility ([2]; methanol, organic solvent or mixture): 1000 mg/mL (≈ 1290 mM)
- solubility in methanol (in words) ([2]; methanol, listed as Example 9): very readily soluble
- solubility in methanol (in words) ([2]; methanol, listed as Example 11): very soluble
- Osmotic Pressure ([3]; 250 mg I/ml): 11.52 atm
- Osmotic Pressure ([3]; 300 mg I/ml): 13.64 atm
- Osmotic Pressure ([3]; 350 mg I/ml): 15.98 atm
- osmotic pressure (in words) ([3]; compared with IOPAMIDOL): less than that of IOPAMIDOL
- Osmolality ([4]; 250 mg I/ml): 452 mOsm/kg
- Osmolality ([4]; 300 mg I/ml): 536 mOsm/kg
- Osmolality ([4]; 350 mg I/ml): 628 mOsm/kg
- stability (in words) [5]: high stability
- Density at 37° C. ([6]; 200 mg iodine/ml): 1.207
- Density at 37° C. ([6]; 300 mg iodine/ml): 1.316
- Density at 37° C. ([6]; 420 mg iodine/ml): 1.453
- viscosity of aqueous solutions (in words) [7]: low viscosity; also recorded: appreciably lower viscosity
- Viscosity [7, 13]: 7.55 cP
- Viscosity [7, 14]: 4.19 cP
- Viscosity [7, 15]: 22.0 cP
- Viscosity [7, 16]: 9.87 cP
- Viscosity at 37° C. ([7]; 200 mg iodine/ml): 1.87 cP
- Viscosity at 37° C. ([7]; 300 mg iodine/ml): 4.19 cP
- Viscosity at 37° C. ([7]; 420 mg iodine/ml): 20.03 cP

SMILES: CC(O)C(=O)Nc1c(I)c(C(=O)NC(CO)CO)c(I)c(C(=O)NC(CO)CO)c1I (racemic) [d,L-5-α-hydroxypropionylamino-2,4,6-triiodo-isophthalic-acid-bis-(1,3-dihydroxyisopropylamide)]
- water solubility (in words) [1]: only limited solubility in water

SMILES: CN(C(=O)CO)c1c(I)c(C(=O)NCC2COC(C)(C)O2)c(I)c(C(=O)NCC2COC(C)(C)O2)c1I (stereo not drawn) [Example 13(A), 5-(N-methyl-hydroxyacetyl-amino)-2,4,6-triiodo-isophthalic-acid-bis-(2,3-isopropylidenedihydroxypropylamide)]
- water solubility (in words) [1]: only slightly soluble in water
- solubility in chloroform (in words) ([2]; chloroform): very soluble
- Solubility in ethanol (in words) [2]: very soluble
- solubility in methanol (in words) ([2]; methanol): very soluble

SMILES: CC(O)C(=O)N(C)c1c(I)c(C(=O)NC(CO)CO)c(I)c(C(=O)NC(CO)CO)c1I (racemic) [d,L-5-(N-methyl-α-hydroxypropionyl-amino)-2,4,6-triiodo-isophthalic-acid-bis-(1,3-dihydroxyisopropylamide]
- supersaturation of aqueous solutions [1]: supersaturated
- water solubility (in words) [1]: dissolves in water very readily

SMILES: CCCCN(C(=O)[C@H](C)O)c1c(I)c(C(=O)NC(CO)CO)c(I)c(C(=O)NC(CO)CO)c1I [Example 4, L-5-(N-butyl-α-hydroxypropionyl-amino)-2,4,6-triiodo-isophthalic-acid-bis-(1,3-dihydroxyisopropylamide)]
- solubility ([1]; temperature not stated, read-out: Water solubility): ≥ 1000 mg/mL

SMILES: C[C@H](O)C(=O)Nc1c(I)c(C(=O)NC(CO)CO)c(I)c(C(=O)NC(CO)CO)c1I [Compound B, L-5-α-hydroxypropionylamino-2,4,6-triiodo-isophthalic-acid-bis-(1,3-dihydroxyisopropylamide), reference compound]
- water solubility ([1]; at 20° C., text): 89.7 % w/v
- water solubility ([1]; at 20° C., listed as IOPAMIDOL): 440 mg of iodine per ml
- Osmotic Pressure ([3]; 250 mg I/ml): 13.09 atm
- Osmotic Pressure ([3]; 300 mg I/ml): 15.76 atm
- Osmotic Pressure ([3]; 350 mg I/ml): 18.77 atm
- Osmolality ([4]; 250 mg I/ml): 514 mOsm/kg
- Osmolality ([4]; 300 mg I/ml): 619 mOsm/kg
- Osmolality ([4]; 350 mg I/ml): 737 mOsm/kg
- stability (in words) ([8]; compared with METRIZAMIDE): higher stability
- toxicity (in words) [9]: very low
- viscosity of concentrated aqueous solutions (in words) [10]: lower viscosity
- Viscosity [7, 13]: 8.95 cP
- Viscosity [7, 14]: 4.70 cP
- Viscosity [7, 15]: 40.6 cP
- Viscosity [7, 16]: 16.1 cP

SMILES: CCCN(C(=O)[C@H](C)O)c1c(I)c(C(=O)NC(CO)CO)c(I)c(C(=O)NC(CO)CO)c1I [Example 3]
- solubility [1, 17]: ≥ 1000 mg/mL

SMILES: CC(=O)Nc1c(I)c(C(=O)N[C@H]2C(O)O[C@H](CO)[C@@H](O)[C@@H]2O)c(I)c(N(C)C(C)=O)c1I (stereo partly drawn) [C, 3-acetylamino-4-N-methyl-acetylamino-2,4,6-triiodobenzoylglucosamine, reference compound]
- solubility [1, 12]: ~800 mg/mL (≈ 1010 mM)
- stability in aqueous solutions (in words) ([8]; prior art): relatively little stability in aqueous solutions
- water solubility (in words) [11]: readily water-soluble
- Viscosity [7, 13]: 11.7 cP
- Viscosity [7, 14]: 5.98 cP
- Viscosity [7, 15]: 77.8 cP
- Viscosity [7, 16]: 26.9 cP

SMILES: CC(=O)Nc1c(I)c(C(=O)NCC(O)CO)c(I)c(C(=O)NCC(O)CO)c1I (stereo not drawn) [5-acetylamino-2,4,6-triiodoisophthalic-acid-bis-(2,3-dihydroxypropylamide)]
- water solubility ([11]; at 20°-40° C.): 1 % (w/v)
- water solubility (in words) [11]: slightly water-soluble

SMILES: C[C@H](O)C(=O)Nc1c(I)c(C(=O)NC(CO)CO)c(I)c(C(=O)NC(CO)CO)c1I [IOPAMIDOL hydrate, reference compound]
- water solubility ([1]; at 20° C.): 307 mg of iodine per ml
- solubility ([1]; at 20° C., read-out: water solubility): 627 mg/mL

SMILES: C[C@H](O)C(=O)N(C)c1c(I)c(C(=O)NC(CO)CO)c(I)c(C(=O)NC(CO)CO)c1I [Example 1, L-5-(N-methyl-α-hydroxypropionyl-amino)-2,4,6-triiodoisophthalic-acid-bis-(1,3-dihydroxyisopropylamide)]
- solubility [1, 17]: ≥ 1000 mg/mL
